From patent publication US10829458B2 (Araxes Pharma LLC, priority 2015, dated 2020)

Target: T1, KRAS G12C 1-169, his-tagged protein, GDP-loaded (Homo sapiens, UniProt P01116, G12C)
T1 construct: KRAS G12C 1-169, his-tagged protein, GDP-loaded
Test: Biochemical assay: covalent modification of KRAS G12C measured by mass spectrometry (RapidFire/TOF or Q-Exactive)
Conditions: covalent binding to KRAS G12C; compounds of structure (I)
Outline: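 Covalent adduct formation read by intact-mass spectrometry (TOF or Q Exactive Plus, charge envelopes deconvoluted into modified and unmodified species) after formic acid quench. Reactions contained 2 μM GDP-bound KRAS G12C 1-169 (his-tag) in Hepes/NaCl/MgCl2 buffer plus 10, 30 or 100 μM final compound, held 30 min, 2 h or 24 h at room temperature.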

SMILES | Binding %
C=CC(=O)N1CCN(c2nc(OCCN3CCCC3=O)nc3c(F)c(-c4c(C)ccc5[nH]ncc45)c(Cl)cc23)CC1 [Example I-1, 1-(2-(4-(4-acryloylpiperazin-1-yl)-6-chloro-8-fluoro-7-(5-methyl-1H-indazol-4-yl)quinazolin-2-yloxy)ethyl) pyrrolidin-2-one] | +++ (+++ indicates binding activity greater than 90%)
C=CC(=O)N1CCN(c2nc(OCc3ccccn3)nc3c(F)c(-c4c(O)cccc4F)c(Cl)cc23)CC1 [Example I-112, 1-(4-(6-chloro-8-fluoro-7-(2-fluoro-6-hydroxyphenyl)-2-(pyridin-2-ylmethoxy)quinazolin-4-yl)piperazin-1-yl) prop-2-en-1-one] | +++ (+++ indicates binding activity greater than 90%)
C=CC(=O)N1CCN(c2nc(NC3CCN(C4CC4)CC3)nc3c(F)c(-c4cc(O)cc5ccccc45)c(Cl)cc23)CC1 [Example I-75, 1-(4-(6-chloro-2-(1-cyclo-propylpiperidin-4-ylamino)-8-fluoro-7-(3-hydroxy-naphthalen-1-yl)quinazolin-4-yl)piperazin-1-yl)prop-2-en-1-one] | +++ (+++ indicates binding activity greater than 90%)
C=CC(=O)N1CCN(c2nc(NC3CCN(C(C)=O)CC3)nc3c(F)c(-c4c(O)cccc4F)c(Cl)cc23)CC1 [Example I-70, 1-(4-(2-(1-acetyl-piperidin-4-ylamino)-6-chloro-8-fluoro-7-(2-fluoro-6-hydroxyphenyl)quinazolin-4-yl)piperazin-1-yl) prop-2-en-1-one] | +++ (+++ indicates binding activity greater than 90%)
C=CC(=O)N1CCN(c2nc(OCCc3ncccc3F)nc3c(F)c(-c4c(O)cccc4F)c(Cl)cc23)CC1 [Example I-114, 1-(4-(6-chloro-8-fluoro-7-(2-fluoro-6-hydroxyphenyl)-2-(2-(3-fluoro-pyridin-2-yl)ethoxy)quinazolin-4-yl)piperazin-1-yl) prop-2-en-1-one] | +++ (+++ indicates binding activity greater than 90%)
C=CC(=O)N1CCN(c2nc(OCc3cccc(C#N)n3)nc3c(F)c(-c4c(O)cccc4F)c(Cl)cc23)CC1 [Example I-122, 6-((4-(4-acryloyl-piperazin-1-yl)-6-chloro-8-fluoro-7-(2-fluoro-6-hydroxyphenyl)quinazolin-2-yloxy)methyl) picolinonitrile] | +++ (+++ indicates binding activity greater than 90%)
C=CC(=O)N1CCN(c2nc(N3CC(COC)C3)nc3c(F)c(-c4c(C)ccc5[nH]ncc45)c(Cl)cc23)CC1 [Example I-152, 1-(4-(6-chloro-8-fluoro-2-(3-(methoxy-methyl)azetidin-1-yl)-7-(5-methyl-1H-indazol-4-yl)quinazolin-4-yl)piperazin-1-yl) prop-2-en-1-one] | +++ (+++ indicates binding activity greater than 90%)
C=CC(=O)N1CCN(c2nc(C#N)nc3c(F)c(-c4c(C)ccc5[nH]ncc45)c(Cl)cc23)CC1 [Example I-11, 4-(4-acryloyl-piperazin-1-yl)-6-chloro-8-fluoro-7-(5-methyl-1H-indazol-4-yl)quinazoline-2-carbonitrile] | +++ (+++ indicates binding activity greater than 90%)
C=CC(=O)N1CCN(c2nc(C(N)=O)nc3c(F)c(-c4c(O)cccc4F)c(Cl)cc23)CC1 [Example I-85, 4-(4-acryloyl-piperazin-1-yl)-6-chloro-8-fluoro-7-(2-fluoro-6-hydroxyphenyl) quinazoline-2-carboxamide] | +++ (+++ indicates binding activity greater than 90%)
C=CC(=O)N1CCN(c2nc(OCCc3ccccn3)nc3c(F)c(-c4c(O)cccc4F)c(Cl)cc23)CC1 (atropisomer, axis not shown) [Example I-103, (S)-1-(4-(6-chloro-8-fluoro-7-(2-fluoro-6-hydroxyphenyl)-2-(2-(pyridin-2-yl)ethoxy)quinazolin-4-yl)piperazin-1-yl) prop-2-en-1-one] | +++ (+++ indicates binding activity greater than 90%)
C=CC(=O)N1CCN(c2nc(OCC(O)CN(C)C)nc3c(F)c(-c4c(C)ccc5[nH]ncc45)c(Cl)cc23)CC1 (stereo not shown) [Example I-53, 1-(4-(6-chloro-2-(3-(dimethyl-amino)-2-hydroxy-propoxy)-8-fluoro-7-(5-methyl-1H-indazol-4-yl)quinazolin-4-yl)piperazin-1-yl)prop-2-en-1-one] | +++ (+++ indicates binding activity greater than 90%)
C=CC(=O)N1CCN(c2nc(NC3CCN(CC4CC4)CC3)nc3c(F)c(-c4c(O)cccc4F)c(Cl)cc23)CC1 [Example I-110, 1-(4-(6-chloro-2-(1-(cyclopropyl-methyl)piperidin-4-ylamino)-8-fluoro-7-(2-fluoro-6-hydroxyphenyl)quinazolin-4-yl)piperazin-1-yl) prop-2-en-1-one] | +++ (+++ indicates binding activity greater than 90%)
C=CC(=O)N1CCN(c2nc(OC3CCC(O)CC3)nc3c(F)c(-c4c(O)cccc4F)c(Cl)cc23)CC1 (stereo not shown) [Example I-63, 1-(4-(6-chloro-8-fluoro-7-(2-fluoro-6-hydroxyphenyl)-2-(4-hydroxy-cyclohexyloxy)quinazolin-4-yl)piperazin-1-yl)prop-2-en-1-one] | +++ (+++ indicates binding activity greater than 90%)
C=CC(=O)N1CCN(c2nc(N3CC(C)(N(C)C)C3)nc3c(F)c(-c4c(O)cccc4F)c(Cl)cc23)CC1 [Example I-149, 1-(4-(6-chloro-2-(3-(dimethyl-amino)-3-methyl-azetidin-1-yl)-8-fluoro-7-(2-fluoro-6-hydroxyphenyl)quinazolin-4-yl)piperazin-1-yl) prop-2-en-1-one] | +++ (+++ indicates binding activity greater than 90%)
C=CC(=O)N1CCN(c2nc(NCCN(CC)CC)nc3c(F)c(-c4c(C)ccc5[nH]ncc45)c(Cl)cc23)CC1 [Example I-161, 1-(4-(6-chloro-2-(2-(diethyl-amino)ethylamino)-8-fluoro-7-(5-methyl-1H-indazol-4-yl)quinazolin-4-yl)piperazin-1-yl) prop-2-en-1-one] | +++ (+++ indicates binding activity greater than 90%)
C=CC(=O)N1CCN(c2nc(C#N)nc3c(F)c(-c4c(O)cccc4F)c(Cl)cc23)CC1 [Example I-68, 4-(4-acryloyl-piperazin-1-yl)-6-chloro-8-fluoro-7-(2-fluoro-6-hydroxyphenyl) quinazoline-2-carbonitrile] | +++ (+++ indicates binding activity greater than 90%)
C=CC(=O)N1CCN(c2nc(Oc3cn[nH]c3)nc3c(F)c(-c4c(O)cccc4F)c(Cl)cc23)CC1 [Example I-64, 1-(4-(2-(1H-pyrazol-4-yloxy)-6-chloro-8-fluoro-7-(2-fluoro-6-hydroxyphenyl)quinazolin-4-yl)piperazin-1-yl) prop-2-en-1-one] | +++ (+++ indicates binding activity greater than 90%)
C=CC(=O)N1CCN(c2nc(OCC(O)CN(C)C)nc3c(F)c(-c4cc(O)cc5ccccc45)c(Cl)cc23)CC1 (stereo not shown) [Example I-58, 1-(4-(6-chloro-2-(3-(dimethyl-amino)-2-hydroxy-propoxy)-8-fluoro-7-(3-hydroxy-naphthalen-1-yl)quinazolin-4-yl)piperazin-1-yl)prop-2-en-1-one] | +++ (+++ indicates binding activity greater than 90%)
C=CC(=O)N1CCN(c2nc(OCCN3CCOCC3=O)nc3c(F)c(-c4cc(O)cc5ccccc45)c(Cl)cc23)CC1 [Example I-57, 4-(2-(4-(4-acryloyl-piperazin-1-yl)-6-chloro-8-fluoro-7-(3-hydroxy-naphthalen-1-yl)quinazolin-2-yloxy)ethyl) morpholin-3-one] | +++ (+++ indicates binding activity greater than 90%)
C=CC(=O)N1CCN(c2nc(OCCS(C)(=O)=O)nc3c(F)c(-c4c(O)cccc4F)c(Cl)cc23)CC1 [Example I-113, 1-(4-(6-chloro-8-fluoro-7-(2-fluoro-6-hydroxyphenyl)-2-(2-(methyl-sulfonyl)ethoxy)quinazolin-4-yl)piperazin-1-yl) prop-2-en-1-one] | +++ (+++ indicates binding activity greater than 90%)

Same assay, conditions: covalent binding to KRAS G12C; compounds of structure (II)

SMILES | Binding %
C=CC(=O)N1CCN(c2ncnc3c(F)c(-c4c(O)ccc(F)c4F)c(Cl)cc23)CC1 [II-3, 1-(4-(6-chloro-7-(2,3-difluoro-6-hydroxyphenyl)-8-fluoroquinazolin-4-yl)piperazin-1-yl)prop-2-en-1-one] | +++ (+++ indicates binding activity of 75% or greater)
C=CC(=O)N1CCN(c2ncnc3cc(-c4c(F)cccc4C(F)F)c(Cl)cc23)CC1 [II-5, 1-(4-(6-chloro-7-(2-(difluoromethyl)-6-fluorophenyl)quinazolin-4-yl)piperazin-1-yl)prop-2-en-1-one] | + (+ indicates binding activity up to 50%)

Same assay, conditions: covalent binding to KRAS G12C; compounds of structure (III)

SMILES | Binding %
C=CC(=O)N1C[C@@H](C)N(c2ncnc3c(F)c(-c4c(O)cccc4F)c(Cl)cc23)[C@H](C)C1 [III-33, 1-((3R,5R)-4-(6-chloro-8-fluoro-7-(2-fluoro-6-hydroxy-phenyl)quinazolin-4-yl)-3,5-dimethyl-piperazin-1-yl)prop-2-en-1-one] | + (+ indicates binding activity up to 50%)
C=CC(=O)N1CCN(c2ncnc3c(F)c(-c4c(O)cccc4F)c(Cl)cc23)[C@@H](C(C)C)C1 [III-34, 1-((3S)-4-(6-chloro-8-fluoro-7-(2-fluoro-6-hydroxy-phenyl)quinazolin-4-yl)-3-isopropyl-piperazin-1-yl)prop-2-en-1-one] | + (+ indicates binding activity up to 50%)
C=CC(=O)N1CCN(c2ncnc3c(F)c(-c4c(O)cccc4F)c(Cl)cc23)CC12CC2 [III-10, 1-(7-(6-chloro-8-fluoro-7-(2-fluoro-6-hydroxy-phenyl)quinazolin-4-yl)-4,7-diazaspiro [2.5]octan-4-yl)prop-2-en-1-one] | + (+ indicates binding activity up to 50%)
